Data: PubChem BioAssay AID2060907 (Molecular Pharmacology Branch, DTP, NCI, 2025)
One block for each molecule: values may come before it.

Test system: 388556-164-R-J1-PDC complex spheroid viability
Experiment: Anticancer human tumor 388556-164-R-J1-PDC patient-derived colon adenocarcinoma cell line growth inhibition [RAS]
Conditions: for viability, T/C: stronger effect = lower value
Method in brief: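 Tumour cells grown as complex spheroids with HUVEC endothelial cells and mesenchymal stem cells, treated with RAS pathway inhibitor combinations. Each agent spans half-log steps from near clinical Cmax, or 10 microM where Cmax is unknown.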

[1] = curve of first compound, second compound 0.0316 µM
[2] = curve of first compound, second compound 0.1 µM
[3] = curve of first compound, second compound 0.316 µM
[4] = curve of first compound, second compound 1 µM
[5] = curve of first compound, second compound 3.16 µM
[6] = curve of first compound, second compound 10 µM
[7] = second compound 0.0316 µM, first compound 0.0316 µM
[8] = second compound 0.0316 µM, first compound 0.1 µM
[9] = second compound 0.0316 µM, first compound 0.316 µM
[10] = second compound 0.0316 µM, first compound 1 µM
[11] = second compound 0.0316 µM, first compound 3.16 µM
[12] = second compound 0.0316 µM, first compound 10 µM
[13] = second compound 0.1 µM, first compound 0.0316 µM
[14] = second compound 0.1 µM, first compound 0.1 µM
[15] = second compound 0.1 µM, first compound 0.316 µM
[16] = second compound 0.1 µM, first compound 1 µM
[17] = second compound 0.1 µM, first compound 3.16 µM
[18] = second compound 0.1 µM, first compound 10 µM
[19] = second compound 0.316 µM, first compound 0.0316 µM
[20] = second compound 0.316 µM, first compound 0.1 µM
[21] = second compound 0.316 µM, first compound 0.316 µM
[22] = second compound 0.316 µM, first compound 1 µM
[23] = second compound 0.316 µM, first compound 3.16 µM
[24] = second compound 0.316 µM, first compound 10 µM
[25] = second compound 1 µM, first compound 0.0316 µM
[26] = second compound 1 µM, first compound 0.1 µM
[27] = second compound 1 µM, first compound 0.316 µM
[28] = second compound 1 µM, first compound 1 µM
[29] = second compound 1 µM, first compound 3.16 µM
[30] = second compound 1 µM, first compound 10 µM
[31] = second compound 3.16 µM, first compound 0.0316 µM
[32] = second compound 3.16 µM, first compound 0.1 µM
[33] = second compound 3.16 µM, first compound 0.316 µM
[34] = second compound 3.16 µM, first compound 1 µM
[35] = second compound 3.16 µM, first compound 3.16 µM
[36] = second compound 3.16 µM, first compound 10 µM
[37] = second compound 10 µM, first compound 0.0316 µM
[38] = second compound 10 µM, first compound 0.1 µM
[39] = second compound 10 µM, first compound 0.316 µM
[40] = second compound 10 µM, first compound 1 µM
[41] = second compound 10 µM, first compound 3.16 µM
[42] = second compound 10 µM, first compound 10 µM
[43] = curve of first compound, second compound 0.00316 µM
[44] = curve of first compound, second compound 0.01 µM
[45] = second compound 0.00316 µM, first compound 0.0316 µM
[46] = second compound 0.00316 µM, first compound 0.1 µM
[47] = second compound 0.00316 µM, first compound 0.316 µM
[48] = second compound 0.00316 µM, first compound 1 µM
[49] = second compound 0.00316 µM, first compound 3.16 µM
[50] = second compound 0.00316 µM, first compound 10 µM
[51] = second compound 0.01 µM, first compound 0.0316 µM
[52] = second compound 0.01 µM, first compound 0.1 µM
[53] = second compound 0.01 µM, first compound 0.316 µM
[54] = second compound 0.01 µM, first compound 1 µM
[55] = second compound 0.01 µM, first compound 3.16 µM
[56] = second compound 0.01 µM, first compound 10 µM
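Further: spheroids exposed to compound for 7 days before readout.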
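Wherever viability, T/C is given: 100% = DMSO vehicle control luminescence.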

IC50 [1]: > 10000 nM | IC50 [2]: > 10000 nM | IC50 [3]: > 10000 nM | IC50 [4]: 9420 nM | IC50 [5]: 8920 nM | IC50 [6]: 5280 nM
Structure (SMILES): CC1(O)CCCC1n1c(=O)c(C(F)F)cc2cnc(NC3CCN(S(C)(=O)=O)CC3)nc21 (configuration not stated) + C#Cc1c(F)ccc2cc(O)cc(-c3ncc4c(N5CC6CCC(C5)N6)nc(OCC56CCCN5CC(F)C6)nc4c3F)c12
viability, T/C [7]: 99.9% | viability, T/C [8]: 101% | viability, T/C [9]: 97.3% | viability, T/C [10]: 108% | viability, T/C [11]: 111% | viability, T/C [12]: 76.7% | viability, T/C [13]: 108% | viability, T/C [14]: 103% | viability, T/C [15]: 99.4% | viability, T/C [16]: 97.3% | viability, T/C [17]: 104% | viability, T/C [18]: 77.2% | viability, T/C [19]: 98.5% | viability, T/C [20]: 108% | viability, T/C [21]: 89.4% | viability, T/C [22]: 107% | viability, T/C [23]: 112% | viability, T/C [24]: 62.4% | viability, T/C [25]: 92.5% | viability, T/C [26]: 99.1% | viability, T/C [27]: 77.4% | viability, T/C [28]: 94.8% | viability, T/C [29]: 97.4% | viability, T/C [30]: 47.6% | viability, T/C [31]: 86.2% | viability, T/C [32]: 78.6% | viability, T/C [33]: 78.9% | viability, T/C [34]: 82.1% | viability, T/C [35]: 87.9% | viability, T/C [36]: 46.6% | viability, T/C [37]: 69.8% | viability, T/C [38]: 72.6% | viability, T/C [39]: 74.8% | viability, T/C [40]: 76.2% | viability, T/C [41]: 56.3% | viability, T/C [42]: 42.1%

IC50 [1]: 2290 nM | IC50 [2]: 2350 nM | IC50 [3]: 827 nM | IC50 [4]: 921 nM | IC50 [5]: 400 nM | IC50 [6]: 95.9 nM
Structure (SMILES): Cc1nc(N2CCC3(CC2)COC(C)C3N)c(CO)nc1Sc1ccnc(N)c1Cl (configuration not stated) + C#Cc1c(F)ccc2cc(O)cc(-c3ncc4c(N5CC6CCC(C5)N6)nc(OCC56CCCN5CC(F)C6)nc4c3F)c12
viability, T/C [7]: 92% | viability, T/C [8]: 85.2% | viability, T/C [9]: 79.8% | viability, T/C [10]: 55.2% | viability, T/C [11]: 51% | viability, T/C [12]: 42.3% | viability, T/C [13]: 98.4% | viability, T/C [14]: 89.7% | viability, T/C [15]: 71.8% | viability, T/C [16]: 62.5% | viability, T/C [17]: 45% | viability, T/C [18]: 36.9% | viability, T/C [19]: 89.2% | viability, T/C [20]: 81.4% | viability, T/C [21]: 47.3% | viability, T/C [22]: 51.8% | viability, T/C [23]: 45.2% | viability, T/C [24]: 28.8% | viability, T/C [25]: 80% | viability, T/C [26]: 70.5% | viability, T/C [27]: 58.9% | viability, T/C [28]: 49.1% | viability, T/C [29]: 39.4% | viability, T/C [30]: 26.2% | viability, T/C [31]: 66.1% | viability, T/C [32]: 50.8% | viability, T/C [33]: 54.3% | viability, T/C [34]: 46.6% | viability, T/C [35]: 33.6% | viability, T/C [36]: 24% | viability, T/C [37]: 61.1% | viability, T/C [38]: 45.5% | viability, T/C [39]: 44% | viability, T/C [40]: 32.1% | viability, T/C [41]: 22% | viability, T/C [42]: 21.3%

IC50 [43]: 2820 nM | IC50 [44]: 3770 nM | IC50 [1]: 6520 nM | IC50 [2]: 3060 nM | IC50 [3]: 3340 nM | IC50 [4]: 1520 nM
Structure (SMILES): Cc1nc(N2CCC3(CC2)COC(C)C3N)c(CO)nc1Sc1ccnc(N)c1Cl (configuration not stated) + C=CC(=O)N1CCN(c2nc(OCC3CCCN3C)nc3c(F)c(-c4nc(N)cc(C)c4C(F)(F)F)c(Cl)cc23)C(C)C1
viability, T/C [45]: 88.3% | viability, T/C [46]: 83.7% | viability, T/C [47]: 72.8% | viability, T/C [48]: 58.3% | viability, T/C [49]: 49.2% | viability, T/C [50]: 45.3% | viability, T/C [51]: 94.7% | viability, T/C [52]: 82.4% | viability, T/C [53]: 75.7% | viability, T/C [54]: 61.7% | viability, T/C [55]: 49.7% | viability, T/C [56]: 43.7% | viability, T/C [7]: 86.1% | viability, T/C [8]: 79.9% | viability, T/C [9]: 73.3% | viability, T/C [10]: 63.3% | viability, T/C [11]: 55.3% | viability, T/C [12]: 47% | viability, T/C [13]: 95.5% | viability, T/C [14]: 83.5% | viability, T/C [15]: 70.5% | viability, T/C [16]: 60.9% | viability, T/C [17]: 49.6% | viability, T/C [18]: 40.6% | viability, T/C [19]: 97.7% | viability, T/C [20]: 78% | viability, T/C [21]: 70.9% | viability, T/C [22]: 63.8% | viability, T/C [23]: 54.1% | viability, T/C [24]: 36.9% | viability, T/C [25]: 91.2% | viability, T/C [26]: 92.5% | viability, T/C [27]: 68.5% | viability, T/C [28]: 56.7% | viability, T/C [29]: 42.3% | viability, T/C [30]: 39.8%

IC50 [43]: 180 nM | IC50 [44]: 152 nM | IC50 [1]: 165 nM | IC50 [2]: 230 nM | IC50 [3]: 190 nM | IC50 [4]: 240 nM
Structure (SMILES): NC1c2ccccc2OC12CCN(c1cnc3c(N4CCCc5ncccc54)n[nH]c3n1)CC2 (configuration not stated) + C=CC(=O)N1CCN(c2nc(OCC3CCCN3C)nc3c(F)c(-c4nc(N)cc(C)c4C(F)(F)F)c(Cl)cc23)C(C)C1
viability, T/C [45]: 63.9% | viability, T/C [46]: 55.6% | viability, T/C [47]: 45.8% | viability, T/C [48]: 39.4% | viability, T/C [49]: 44.6% | viability, T/C [50]: 38.8% | viability, T/C [51]: 67.4% | viability, T/C [52]: 55.4% | viability, T/C [53]: 39.1% | viability, T/C [54]: 39.7% | viability, T/C [55]: 44.2% | viability, T/C [56]: 38.8% | viability, T/C [7]: 71.1% | viability, T/C [8]: 54.1% | viability, T/C [9]: 44.1% | viability, T/C [10]: 38.7% | viability, T/C [11]: 39.8% | viability, T/C [12]: 32.9% | viability, T/C [13]: 70% | viability, T/C [14]: 59.5% | viability, T/C [15]: 45.7% | viability, T/C [16]: 40.5% | viability, T/C [17]: 40.1% | viability, T/C [18]: 35.6% | viability, T/C [19]: 69.2% | viability, T/C [20]: 54.6% | viability, T/C [21]: 45.3% | viability, T/C [22]: 41.8% | viability, T/C [23]: 40.6% | viability, T/C [24]: 35.5% | viability, T/C [25]: 70.3% | viability, T/C [26]: 58.3% | viability, T/C [27]: 45.9% | viability, T/C [28]: 40% | viability, T/C [29]: 34.4% | viability, T/C [30]: 28.1%

IC50 (curve of compound): > 10000 nM
Structure (SMILES): CC(=O)OC12COC1CC(O)C1(C)C(=O)C(O)C3=C(C)C(OC(=O)C(O)C(NC(=O)OC(C)(C)C)c4ccccc4)CC(O)(C(OC(=O)c4ccccc4)C21)C3(C)C (configuration not stated)
viability, T/C (compound 0.0316 µM): 89.3% [middle of 4 runs] | viability, T/C (compound 0.1 µM): 74.3% [middle of 4 runs] | viability, T/C (compound 0.316 µM): 75% [middle of 4 runs] | viability, T/C (compound 1 µM): 78.8% [middle of 4 runs] | viability, T/C (compound 3.16 µM): 78.5% [middle of 4 runs] | viability, T/C (compound 10 µM): 75.2% [middle of 4 runs]

IC50 (curve of compound): 242 nM [middle of 4 runs]
Structure (SMILES): NC1c2ccccc2OC12CCN(c1cnc3c(N4CCCc5ncccc54)n[nH]c3n1)CC2 (configuration not stated)
viability, T/C (compound 0.0316 µM): 70% [middle of 4 runs] | viability, T/C (compound 0.1 µM): 59.9% [middle of 4 runs] | viability, T/C (compound 0.316 µM): 48.8% [middle of 4 runs] | viability, T/C (compound 1 µM): 41.2% [middle of 4 runs] | viability, T/C (compound 3.16 µM): 43.6% [middle of 4 runs] | viability, T/C (compound 10 µM): 37.6% [middle of 4 runs]
